Legend:
[1] = biological target: Cyclin-dependent kinase 9 (Homo sapiens, UniProt P50750); assay: Inhibition of CDK9 (unknown origin) preincubated for 20 mins followed by [gamma-33P]ATP addition measured after 120 mins in presence of ATP by Hot-SpotSM kinase assay
U-937 = assay: Antiproliferative activity against human U-937 cells incubated for 72 hrs by CCK8 assay; format: functional, cell-based; details: U-937, 72 h
HL-60 = assay: Antiproliferative activity against human HL-60 cells incubated for 72 hrs by CCK8 assay; format: functional, cell-based; details: HL-60, 72 h
[2] = Antiproliferative activity against human SKNO-1 cells incubated for 72 hrs by CCK8 assay; format: functional, cell-based; details: SKNO-1, 72 h
Kasumi 1 = assay: Antiproliferative activity against human Kasumi 1 cells incubated for 72 hrs by CCK8 assay; format: functional, cell-based; details: Kasumi 1, 72 h

Sequence of Cyclin-dependent kinase 9 (P50750 whole entry): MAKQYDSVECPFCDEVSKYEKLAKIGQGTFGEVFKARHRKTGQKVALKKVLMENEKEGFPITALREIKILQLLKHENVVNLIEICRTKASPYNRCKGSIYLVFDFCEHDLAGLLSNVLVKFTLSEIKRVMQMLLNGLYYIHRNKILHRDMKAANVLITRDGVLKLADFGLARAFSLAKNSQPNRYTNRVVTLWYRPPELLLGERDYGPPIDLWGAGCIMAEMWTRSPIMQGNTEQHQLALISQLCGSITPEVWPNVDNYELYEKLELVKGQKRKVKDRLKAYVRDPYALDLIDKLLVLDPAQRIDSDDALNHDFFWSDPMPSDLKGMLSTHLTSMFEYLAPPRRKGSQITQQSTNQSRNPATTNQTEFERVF

Cc1cc(N)c(NC(=O)c2ccc(NC(=O)c3n[nH]cc3NC(=O)c3c(F)cccc3F)cc2)cc1C
IC50 [1]: < 100 nM | IC50 (U-937): > 10 µM | IC50 (HL-60): > 10 µM | IC50 [2]: 6.89 µM | IC50 (Kasumi 1): > 10 µM

O=C(CCCCCN1CCC(NC(=O)c2n[nH]cc2NC(=O)c2c(F)cccc2F)CC1)NO
IC50 [1]: < 100 nM | IC50 (U-937): > 10 µM | IC50 (HL-60): 1.81 µM | IC50 [2]: > 10 µM | IC50 (Kasumi 1): > 10 µM

Cc1cc(N)c(NC(=O)c2ccc(NC(=O)c3n[nH]cc3NC(=O)c3c(Cl)cccc3Cl)cc2)cc1C
IC50 [1]: < 100 nM | IC50 (U-937): 1.14 µM | IC50 (HL-60): 1.02 µM | IC50 [2]: 2.56 µM | IC50 (Kasumi 1): 0.93 µM

O=C(CCCNC(=O)c1ccc(NC(=O)c2n[nH]cc2NC(=O)c2c(F)cccc2F)cc1)NO
IC50 [1]: < 100 nM | IC50 (U-937): > 10 µM | IC50 (HL-60): > 10 µM | IC50 [2]: > 10 µM | IC50 (Kasumi 1): 5.6 µM

O=C(Nc1ccccc1)c1ccc(NC(=O)c2n[nH]cc2NC(=O)c2c(Cl)cccc2Cl)cc1
IC50 [1]: < 100 nM | IC50 (U-937): 4.68 µM | IC50 (HL-60): 5.84 µM | IC50 [2]: 3.27 µM | IC50 (Kasumi 1): 3.83 µM

O=C(CCCNC(=O)c1n[nH]cc1NC(=O)c1c(Cl)cccc1Cl)NO
IC50 [1]: < 100 nM | IC50 (U-937): > 10 µM | IC50 (HL-60): > 10 µM | IC50 [2]: > 10 µM | IC50 (Kasumi 1): > 10 µM

O=C(CCNC(=O)c1ccc(NC(=O)c2n[nH]cc2NC(=O)c2c(Cl)cccc2Cl)cc1)NO
IC50 [1]: < 100 nM | IC50 (U-937): > 10 µM | IC50 (HL-60): > 10 µM | IC50 [2]: > 10 µM | IC50 (Kasumi 1): > 10 µM

O=C(CCNC(=O)c1ccc(NC(=O)c2n[nH]cc2NC(=O)c2c(F)cccc2F)cc1)NO
IC50 [1]: < 100 nM | IC50 (U-937): > 10 µM | IC50 (HL-60): > 10 µM | IC50 [2]: 5.97 µM | IC50 (Kasumi 1): 8.81 µM

Nc1ccccc1NC(=O)c1ccc(NC(=O)c2n[nH]cc2NC(=O)c2c(F)cccc2F)cc1
IC50 [1]: < 100 nM | IC50 (U-937): 5.6 µM | IC50 (HL-60): > 10 µM | IC50 [2]: 2.65 µM | IC50 (Kasumi 1): 3.1 µM

O=C(CCCCN1CCC(NC(=O)c2n[nH]cc2NC(=O)c2c(F)cccc2F)CC1)NO
IC50 [1]: < 100 nM | IC50 (U-937): 7.34 µM | IC50 (HL-60): 1.77 µM | IC50 [2]: 6.53 µM | IC50 (Kasumi 1): 6.44 µM

O=C(CCCNC(=O)c1ccc(NC(=O)c2n[nH]cc2NC(=O)c2c(Cl)cccc2Cl)cc1)NO
IC50 [1]: < 100 nM | IC50 (U-937): > 10 µM | IC50 (HL-60): > 10 µM | IC50 [2]: > 10 µM | IC50 (Kasumi 1): > 10 µM

O=C(CCCN1CCC(NC(=O)c2n[nH]cc2NC(=O)c2c(Cl)cccc2Cl)CC1)NO
IC50 [1]: < 100 nM | IC50 (U-937): 1.61 µM | IC50 (HL-60): 1.24 µM | IC50 [2]: 2.23 µM | IC50 (Kasumi 1): 3.52 µM

O=C(CCN1CCC(NC(=O)c2n[nH]cc2NC(=O)c2c(Cl)cccc2Cl)CC1)NO
IC50 [1]: < 100 nM | IC50 (U-937): 0.91 µM | IC50 (HL-60): 1.54 µM | IC50 [2]: 1.67 µM | IC50 (Kasumi 1): 1.38 µM

O=C(CCCCCCN1CCC(NC(=O)c2n[nH]cc2NC(=O)c2c(F)cccc2F)CC1)NO
IC50 [1]: < 100 nM | IC50 (U-937): 1.44 µM | IC50 (HL-60): 1.01 µM | IC50 [2]: 1.08 µM | IC50 (Kasumi 1): 1.96 µM

Nc1cc(Cl)c(Cl)cc1NC(=O)c1ccc(NC(=O)c2n[nH]cc2NC(=O)c2c(Cl)cccc2Cl)cc1
IC50 [1]: < 100 nM | IC50 (U-937): 5.92 µM | IC50 (HL-60): 9.76 µM | IC50 [2]: 5.54 µM | IC50 (Kasumi 1): 8.42 µM

O=C(CNC(=O)c1ccc(NC(=O)c2n[nH]cc2NC(=O)c2c(F)cccc2F)cc1)NO
IC50 [1]: < 100 nM | IC50 (U-937): > 10 µM | IC50 (HL-60): > 10 µM | IC50 [2]: > 10 µM | IC50 (Kasumi 1): > 10 µM

O=C(CCCCNC(=O)c1ccc(NC(=O)c2n[nH]cc2NC(=O)c2c(Cl)cccc2Cl)cc1)NO
IC50 [1]: < 100 nM | IC50 (U-937): 8.52 µM | IC50 (HL-60): > 10 µM | IC50 [2]: > 10 µM | IC50 (Kasumi 1): > 10 µM

Nc1cc(Cl)c(Cl)cc1NC(=O)c1ccc(NC(=O)c2n[nH]cc2NC(=O)c2c(F)cccc2F)cc1
IC50 [1]: < 100 nM | IC50 (U-937): 6.8 µM | IC50 (HL-60): > 10 µM | IC50 [2]: 7.28 µM | IC50 (Kasumi 1): 7.79 µM

Nc1cc(Br)c(Br)cc1NC(=O)c1ccc(NC(=O)c2n[nH]cc2NC(=O)c2c(F)cccc2F)cc1
IC50 [1]: < 100 nM | IC50 (U-937): > 10 µM | IC50 (HL-60): > 10 µM | IC50 [2]: > 10 µM | IC50 (Kasumi 1): > 10 µM

— ChEMBL document CHEMBL5346903, “Discovery of novel and bioavailable histone deacetylases and cyclin-dependent kinases dual inhibitor to impair the stemness of leukemia cells” (Eur J Med Chem, 2023)
